Measurements: patent US20240299400A1, “Transcription Factor GLI1 Inhibitors and Uses Thereof” (University of Connecticut, priority 2023, published 2024)

Columns and labels:
GLI1-ZFD = target: T1, GLI1-ZFD (Homo sapiens, UniProt P08151); assay: Microscale thermophoresis (MST) binding to GLI1-ZFD
T1 construct: GLI1-ZFD Expression and Purification; made in house
T1 sequence (P08151 234-388 limits assumed): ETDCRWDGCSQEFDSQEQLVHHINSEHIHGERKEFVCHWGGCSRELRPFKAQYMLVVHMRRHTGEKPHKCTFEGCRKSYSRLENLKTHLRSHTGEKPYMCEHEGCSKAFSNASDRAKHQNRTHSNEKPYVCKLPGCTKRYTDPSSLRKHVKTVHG
How it was run: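 RED-NHS–labeled recombinant GLI1 zinc-finger domain (200 nM) was mixed with compound dilutions (DMSO<5%) in 50 mM HEPES pH 8.3, 100 mM NaCl. Binding was read by microscale thermophoresis on a Monolith NT.115.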

ASZ001 cells = assay: MTS anti-proliferative assay in ASZ001 cells; assay type: cell-based, murine; details: Mus musculus, ASZ001, Ave ± SEM
CSF1R = target: T2, CSF1R (Homo sapiens, UniProt P07333); assay: ZLyte kinase assay, CSF1R; assay type: biochemical; details: average of three replicates
T2 construct: purchased ThermoFisher Scientific (Madison, WI, USA), contract service
Description: (§1) Kinase screening experiments. Kinase inhibition/binding experiments were performed by ThermoFisher Scientific (Madison, WI, USA) as a contract service, utilizing their default protocols [G. Yernale, A comprehensive review on the biological interest of quinoline and its derivatives. Bioorg. Med. Chem. 32 (2021) 115973]. Briefly, for ZLyte assay, compound in DMSO (100 nL), kinase buffer (2.4 μL), peptide/kinase mixture (5 μL), and ATP solution (2.5 μL) were mixed in a black 384-well plate. Following a 30 s plate shake to mix reagents, the kinase assay mixture was incubated at RT for 60 min. Following addition of the development reagent solution to each well, another 60 min incubation was performed at RT for reaction development. Fluorescent signal was recorded and subsequently analyzed.

EGFR = target: T3, EGFR (Homo sapiens, UniProt P00533); assay: ZLyte kinase assay, EGFR; assay type: biochemical; details: average of three replicates
T3 construct: purchased ThermoFisher Scientific (Madison, WI, USA), contract service
Description: as §1

PRKACA = target: T4, PRKACA (Homo sapiens, UniProt P17612); assay: ZLyte kinase assay, PRKACA; assay type: biochemical; details: average of three replicates
T4 construct: purchased ThermoFisher Scientific (Madison, WI, USA), contract service
Description: as §1

GLI1 protein levels = assay: Western blot GLI1 protein expression in ASZ001 cells; assay type: cell-based, murine; details: 10 and 25 μM
Description: (§2) ASZ001 cells were plated as described above and treated with drugs or vehicle control. Following incubation, cells were washed with chilled PBS and lysed with RIPA buffer containing […] PMSF protease inhibitor (Thermo Scientific #26978). Supernatant was collected following 15 min centrifugation at 12,000 rpm and 4° C. Protein concentrations from cell extracts were determined through the BCA kit (Pierce #23228) per the manufacturer's instructions. Proteins from either cell lysate or cell-free biochemical assay were then loaded on 12% SDS-PAGE. Following electrophoresis, proteins were transferred onto nitrocellulose membrane at 100 V for 120 min at 4° C. On a clean tray with constant gentle shaking, the membrane was sequentially submerged in 5% BSA for 1 h, and incubated with the primary antibody indicated overnight at 4° C. After washes with TBST, the appropriate secondary antibody was added to the tray for a 2 h incubation at RT. Chemiluminescent detection on film was visualized using ECL reagents (BioRad #1705060) and subsequently quantitated using Image J (http://imagej.nih.gov). Primary antibodies were used at 1:2000 dilution and are as follows: GLI1 (#MA5-32553); Gli2 (#PA5-79314); β-Actin (#PA1-16889). Secondary antibody (Goat anti-Rabbit, #32460) was used at a 1:5000 dilution. All antibodies were purchased from Invitrogen.

GLI2 protein expression = assay: Western blot GLI2 protein expression in ASZ001 cells; assay type: cell-based, murine; details: 25 μM
Description: as §2

T3 sequence (P00533 25-1210): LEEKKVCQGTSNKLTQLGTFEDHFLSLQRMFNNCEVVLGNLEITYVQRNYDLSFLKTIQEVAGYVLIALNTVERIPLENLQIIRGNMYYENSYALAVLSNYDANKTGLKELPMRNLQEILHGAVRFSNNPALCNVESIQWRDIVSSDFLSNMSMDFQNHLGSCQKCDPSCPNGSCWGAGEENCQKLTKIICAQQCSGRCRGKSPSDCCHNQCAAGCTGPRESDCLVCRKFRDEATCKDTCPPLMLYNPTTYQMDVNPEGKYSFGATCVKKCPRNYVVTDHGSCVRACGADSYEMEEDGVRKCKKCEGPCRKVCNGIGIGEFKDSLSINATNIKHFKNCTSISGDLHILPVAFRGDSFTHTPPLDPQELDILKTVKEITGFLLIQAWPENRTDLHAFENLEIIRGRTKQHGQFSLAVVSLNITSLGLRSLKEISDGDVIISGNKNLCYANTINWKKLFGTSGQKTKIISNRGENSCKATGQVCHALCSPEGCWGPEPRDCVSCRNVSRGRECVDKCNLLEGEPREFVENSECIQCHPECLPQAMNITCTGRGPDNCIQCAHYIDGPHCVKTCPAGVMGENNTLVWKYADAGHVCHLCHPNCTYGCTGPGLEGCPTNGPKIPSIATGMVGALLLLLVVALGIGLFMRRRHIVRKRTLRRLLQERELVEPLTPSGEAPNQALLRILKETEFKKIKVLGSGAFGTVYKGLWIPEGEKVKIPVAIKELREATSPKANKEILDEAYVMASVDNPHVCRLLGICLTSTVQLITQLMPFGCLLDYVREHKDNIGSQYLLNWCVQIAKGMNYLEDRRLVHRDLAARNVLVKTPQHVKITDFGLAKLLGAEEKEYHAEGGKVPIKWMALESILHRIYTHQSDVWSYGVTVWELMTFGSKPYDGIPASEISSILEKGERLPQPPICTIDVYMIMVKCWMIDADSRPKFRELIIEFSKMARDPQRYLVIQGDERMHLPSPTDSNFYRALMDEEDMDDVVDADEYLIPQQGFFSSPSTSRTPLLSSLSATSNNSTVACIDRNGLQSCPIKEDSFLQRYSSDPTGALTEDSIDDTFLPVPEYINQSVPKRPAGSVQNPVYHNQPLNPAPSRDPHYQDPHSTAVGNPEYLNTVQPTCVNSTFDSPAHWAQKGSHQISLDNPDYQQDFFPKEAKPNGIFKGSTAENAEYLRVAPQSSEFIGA
T2 sequence (P07333 20-972): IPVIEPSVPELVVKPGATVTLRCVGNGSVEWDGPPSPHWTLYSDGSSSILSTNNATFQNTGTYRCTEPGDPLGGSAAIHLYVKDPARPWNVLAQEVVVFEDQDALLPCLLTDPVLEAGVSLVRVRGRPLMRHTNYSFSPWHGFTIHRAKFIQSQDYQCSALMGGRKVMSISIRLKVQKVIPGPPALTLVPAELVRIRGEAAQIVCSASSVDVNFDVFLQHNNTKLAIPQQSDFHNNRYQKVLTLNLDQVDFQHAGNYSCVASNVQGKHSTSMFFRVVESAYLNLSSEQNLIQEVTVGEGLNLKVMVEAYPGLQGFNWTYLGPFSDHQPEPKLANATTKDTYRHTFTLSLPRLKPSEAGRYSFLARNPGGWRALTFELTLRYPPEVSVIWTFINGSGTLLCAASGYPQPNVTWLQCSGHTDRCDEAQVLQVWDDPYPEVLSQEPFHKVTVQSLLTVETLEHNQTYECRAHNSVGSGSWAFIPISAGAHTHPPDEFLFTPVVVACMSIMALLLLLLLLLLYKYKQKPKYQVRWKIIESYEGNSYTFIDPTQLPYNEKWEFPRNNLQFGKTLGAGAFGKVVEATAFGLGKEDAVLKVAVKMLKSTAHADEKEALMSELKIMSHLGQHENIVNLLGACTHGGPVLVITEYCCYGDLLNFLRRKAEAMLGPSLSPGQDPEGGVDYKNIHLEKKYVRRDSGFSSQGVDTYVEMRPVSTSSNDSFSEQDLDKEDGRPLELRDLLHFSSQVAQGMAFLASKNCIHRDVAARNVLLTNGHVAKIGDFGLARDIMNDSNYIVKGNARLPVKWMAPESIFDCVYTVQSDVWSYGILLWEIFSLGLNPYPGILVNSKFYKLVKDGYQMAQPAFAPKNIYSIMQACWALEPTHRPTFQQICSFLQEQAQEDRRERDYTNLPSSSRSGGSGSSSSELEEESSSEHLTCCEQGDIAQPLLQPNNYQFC

| binding to GLI1 (in words) (GLI1-ZFD; MST binding assay) | Kd (GLI1-ZFD; Table 5, Ave ± SEM) [µM] | inhibition at 1 µM (CSF1R) [%] | inhibition at 1 µM (EGFR) [%] | inhibition at 1 µM (PRKACA) [%] | Kd (GLI1-ZFD; Table 7, Ave ± SEM) [µM] | SMILES | GI50 (ASZ001 cells; Table 5, 48 h) [µM] | GI50 (ASZ001 cells; Table 7, 48 h) [µM] | GLI1 protein levels (in words) (GLI1 protein levels) | GLI2 protein expression (in words) (GLI2 protein expression) |
| --- | --- | --- | --- | --- | --- | --- | --- | --- | --- | --- |
| does not bind to GLI1 | > 125 | 8 | -2 | 4 |  | CCN(CC)c1ccc(C(Nc2ccccn2)c2ccc3ccc(C)nc3c2OC)cc1 (centres unmarked) [Compound 20, N-((4-Diethylaminophenyl)(8-methoxy-2-methylquinolin-7-yl)methyl)pyridin-2-amine] | > 100 |  |  |  |
|  |  | 10 | 2 | 6 | 9.1 ± 1.5 | Cc1ccc2ccc(C(Nc3ccccn3)c3ccncc3)c(O)c2n1 (centres unmarked) [Compound 39, 7-((Pyridin-4-yl)(pyridin-2-ylamino)methyl)-2-methylquinolin-8-ol] |  | 3.9 ± 1.2 | significantly reduced | significantly suppressed |
|  |  | 8 | 2 | 7 | 8 ± 3.1 | Cc1ccc2ccc(C(Nc3ccccn3)c3ccc(N4CCCC4=O)cc3)c(O)c2n1 (centres unmarked) [Compound 48, 7-((4-(2-Oxopyrrolidin-1-yl)phenyl)(pyridin-2-ylamino)methyl)-2-methylquinolin-8-ol] |  | 19.6 ± 3.6 | significantly reduced | significantly suppressed |
